Results from patent publication US11884671B2, “Purinone compounds and their use in treating cancer” (ASTRAZENECA AB, priority 2018, dated 2024).

Key:
[1] = biological target: Full length human DNAPK protein (Homo sapiens (Human), UniProt P78527); assay: DNAPK enzyme potency assay (DNA-PK enz), TR-FRET; type: biochemical; details: arithmetic mean of two or more experiments, 18 μM ATP; for IC50: read-out: DNA-PK enz pIC50 (converted)
Description: The following assays were used to measure the effects of the compounds described herein: a) DNAPK enzyme potency assay; b) DNAPK cellular potency assay. During the description of the assays, generally: • i. The following abbreviations have been used; DMSO=Dimethyl Sulphoxide; DTT=Dithiothreitol; EDTA=Ethylenediaminetetraacetic Acid, TR-FRET=Time Resolved Fluorescence Resonance Energy Transfer, ATP=Adenosine triphosphate, DTT=Dithiothreitol, DNA=Deoxyribonucleic acid, HEPES=(2-hydroxyethyl)-1-piperazineethanesulfonic acid • ii. […] Assay a): DNAPK Enzyme Potency Assay (DNA-PK Enz)
The inhibitory activity of compounds against DNAPK was determined by TR-FRET measuring a fluorescent labelled peptide substrate converting to a phosphorylated product. Fluorescently tagged peptide substrate were purchased from Thermo Fisher Scientific. 12 point half-log compound concentration-response curves, with a top concentration of 100 μM were generated from 10 mM stocks of compound solubilised in DMSO using an Echo 555 (Labcyte Inc., Sunnyvale, CA). All assays were preformed in white Greiner 1536 well low volume plates (Greiner Bio-One, UK), in a total reaction volume of 3 μL and 1% (v/v) final DMSO concentration. Enzymes and substrates were added separately to the compound plates and incubated at room temperature. The kinase reaction was then quenched by the addition of 3 μL of stop buffer. Stopped assay plates were read using a BMG Pherastar. IC50 values were calculated using a Genedata Screener® software (Genedata, Inc., Basel, Switzerland).
Full length human DNAPK protein was purified from HeLa cell extract by ion exchange. Initially DNAPK protein was incubated with compound for 30 minutes at room temperature in reaction buffer (50 mM Hepes pH 7.5, 0.01% Brij-35, 10 mM MgCl2, 1 mM EGTA, 1 mM DTT, […] Calf Thymus DNA). The reaction was then initiated by the addition of ATP and fluorescently tagged peptide substrate (Fluorescein-[…], Thermo Fisher Scientific). […] The reaction was incubated for a further hour and the plates were read on a BMG Pherastar.
(§1) Data was analysed and IC50 values were calculated using Genedata Screener® software (Genedata, Inc., Basel, Switzerland).

[2] = biological target: DNAPK (Homo sapiens (Human), UniProt P78527); assay: DNAPK cellular potency assay (DNA-PK cell), pS2056-DNAPK ELISA in irradiated A549 cells; type: cell-based; details: 8 Gy radiation, arithmetic mean of two or more experiments, read-out: DNA-PK cell pIC50 (converted)
Method: The DNAPK cell ELISA assay was performed in the A549 cell line. A549 cells were cultured in cell media composed of MEM-F12 (Minimum Essential Medium F12 Sigma #D6421), 10% (v/v) Foetal Calf Serum and 1% (v/v) 200 mM L-Glutamine. […] The following day the Greiner ELISA plates were washed 3× with PBS-T and blocked with 3% BSA/PBS for 2 h, before a further 3× wash with PBS-T.
The cell plates were then incubated for 1 h at 37° C. before receiving a radiation dose of 8 Gy (XRAD 320, table height 65). The cells were incubated for a further 1 h before removal of cell media. […] Cell lysates ([…]) were transferred to the DNAPK antibody-coated ELISA plates using a CyBio Felix liquid handling platform, and ELISA plates were incubated at 4° C. overnight.
The following day, ELISA plates were washed 3× with PBS-T and dispensed with in-house pS2056-DNAPK antibody (0.5 μg/mL in 3% BSA/PBS) at 20 ul/well.
The fluorescence intensity of individual wells was determined using a PerkinElmer EnVision plate reader.
as §1

[3] = biological target: JAK1 (Homo sapiens (Human), UniProt P23458); assay: JAK1 enzyme assay (Z'-LYTE); type: biochemical; details: 75 μM ATP, arithmetic mean of two or more experiments; for IC50: read-out: JAK1 enz pIC50 (converted)
Method: (§2) The inhibitory activity of compounds against AURKA, AURKB, JAK1, JAK2 and JAK3 was determined in Z′-LYTE® assays run by ThermoFisher Scientific as part of their SelectScreen® Biochemical Kinase Profiling Service. The Z′-LYTE® biochemical assay format employs a fluorescence-based, coupled-enzyme format and is based on the differential sensitivity of phosphorylated and non-phosphorylated peptides to proteolytic cleavage. The peptide substrate is labeled with two fluorophores—one at each end—that make up a FRET pair. In the primary reaction, the kinase transfers the gamma-phosphate of ATP to a single tyrosine, serine or threonine residue in a synthetic FRET-peptide. In the secondary reaction, a site-specific protease recognises and cleaves non-phosphorylated FRET-peptides. Phosphorylation of FRET-peptides suppresses cleavage by the Development Reagent. Cleavage disrupts FRET between the donor (i.e., coumarin) and acceptor (i.e., fluorescein) fluorophores on the FRET-peptide, whereas uncleaved, phosphorylated FRET-peptides maintain FRET. A ratiometric method, which calculates the ratio (the Emission Ratio) of donor emission to acceptor emission after excitation of the donor fluorophore at 400 nm, is used to quantitate reaction progress. Both cleaved and uncleaved FRET-peptides contribute to the fluorescence signals and therefore to the Emission Ratio. The extent of phosphorylation of the FRET-peptide can be calculated from the Emission Ratio.
(§3) 10 point three-fold dilution compound concentration-response curves, with a top concentration of 10 μM were generated from 10 mM stocks of compound solubilised in DMSO. All assays were performed in black, non-binding, low volume Corning 384-well plates (cat. #4514, Corning), in a total reaction volume of 10 μL and 1% (v/v) final DMSO concentration. […] The kinase reaction was then quenched by the addition of 5 μL of Development Reagent (ThermoFisher Scientific proprietary). […] IC50 values were calculated using XLfit software (IDBS Ltd, Surrey, UK), with the curve fit to model number 205 (sigmoidal dose-response model).
JAK1: The 2×JAK/Tyr 06 (ThermoFisher Scientific proprietary) mixture was prepared in 50 mM HEPES pH 6.5, 0.01% BRIJ-35, 10 mM MgCl2, 1 mM EGTA, 0.02% NaN3. […] After the 1 hour Kinase Reaction incubation, 5 μL of a 1:128 dilution of Development Reagent was added.

[4] = biological target: JAK2 (Homo sapiens (Human), UniProt O60674); assay: JAK2 enzyme assay (Z'-LYTE); type: biochemical; details: 25 μM ATP, arithmetic mean of two or more experiments; for IC50: read-out: JAK2 enz pIC50 (converted)
Method: as §2, §3
JAK2: The 2×JAK2/Tyr 06 (ThermoFisher Scientific proprietary) mixture was prepared in 50 mM HEPES pH 7.5, 0.01% BRIJ-35, 10 mM MgCl2, 1 mM EGTA. […] After the 1 hour Kinase Reaction incubation, 5 μL of a 1:128 dilution of Development Reagent was added.

[5] = biological target: AURKB (Aurora B) (Homo sapiens (Human), UniProt Q96GD4); assay: Aurora-B enzyme assay (Z'-LYTE); type: biochemical; details: 75 μM ATP, arithmetic mean of two or more experiments; for IC50: read-out: AurB enz pIC50 (converted)
Method: as §2, §3
Aurora B (AurB): The 2×AURKB (Aurora B)/Ser/Thr 01 (ThermoFisher Scientific proprietary) mixture was prepared in 50 mM HEPES pH 7.5, 0.01% BRIJ-35, 10 mM MgCl2, 1 mM EGTA. […] After the 1 hour Kinase Reaction incubation, 5 μL of a 1:4096 dilution of Development Reagent was added.

Sequence of AURKB (Aurora B) (Q96GD4 whole entry): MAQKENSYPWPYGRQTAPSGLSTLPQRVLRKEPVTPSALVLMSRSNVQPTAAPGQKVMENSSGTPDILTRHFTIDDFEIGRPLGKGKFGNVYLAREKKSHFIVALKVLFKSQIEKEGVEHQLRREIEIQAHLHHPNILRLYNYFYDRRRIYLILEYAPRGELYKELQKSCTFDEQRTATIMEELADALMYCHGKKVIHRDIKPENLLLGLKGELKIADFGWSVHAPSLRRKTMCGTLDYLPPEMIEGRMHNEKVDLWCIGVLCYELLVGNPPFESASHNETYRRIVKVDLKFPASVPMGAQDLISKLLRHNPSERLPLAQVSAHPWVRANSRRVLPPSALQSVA
Sequence of JAK2 (O60674 whole entry): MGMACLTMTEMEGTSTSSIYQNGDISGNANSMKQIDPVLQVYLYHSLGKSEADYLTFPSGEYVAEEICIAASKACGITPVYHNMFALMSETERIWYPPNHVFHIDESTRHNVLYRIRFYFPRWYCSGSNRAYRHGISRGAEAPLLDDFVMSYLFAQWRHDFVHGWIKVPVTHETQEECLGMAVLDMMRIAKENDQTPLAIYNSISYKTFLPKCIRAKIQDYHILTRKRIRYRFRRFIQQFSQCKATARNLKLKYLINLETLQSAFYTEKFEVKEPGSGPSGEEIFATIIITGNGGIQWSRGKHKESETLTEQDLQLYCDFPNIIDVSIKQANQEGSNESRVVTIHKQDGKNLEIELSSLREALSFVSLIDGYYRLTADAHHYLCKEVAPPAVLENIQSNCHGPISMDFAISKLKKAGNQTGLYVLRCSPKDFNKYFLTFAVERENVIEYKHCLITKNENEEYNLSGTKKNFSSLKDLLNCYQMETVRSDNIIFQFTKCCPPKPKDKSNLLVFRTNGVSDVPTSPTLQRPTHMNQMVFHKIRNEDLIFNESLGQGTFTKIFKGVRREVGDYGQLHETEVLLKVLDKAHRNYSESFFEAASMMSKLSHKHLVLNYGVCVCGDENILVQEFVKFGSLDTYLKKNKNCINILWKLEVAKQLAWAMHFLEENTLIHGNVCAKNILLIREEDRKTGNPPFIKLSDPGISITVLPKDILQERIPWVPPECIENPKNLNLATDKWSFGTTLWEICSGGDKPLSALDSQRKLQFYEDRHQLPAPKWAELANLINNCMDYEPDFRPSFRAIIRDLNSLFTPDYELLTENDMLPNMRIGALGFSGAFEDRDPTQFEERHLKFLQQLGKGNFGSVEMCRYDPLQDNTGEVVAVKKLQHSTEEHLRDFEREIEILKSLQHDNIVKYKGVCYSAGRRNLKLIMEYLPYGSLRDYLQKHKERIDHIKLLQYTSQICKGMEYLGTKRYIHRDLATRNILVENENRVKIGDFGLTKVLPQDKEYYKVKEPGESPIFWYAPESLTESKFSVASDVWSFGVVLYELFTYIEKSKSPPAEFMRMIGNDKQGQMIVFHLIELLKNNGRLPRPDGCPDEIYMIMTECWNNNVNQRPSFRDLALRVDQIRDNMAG
Sequence of JAK1 (P23458 whole entry): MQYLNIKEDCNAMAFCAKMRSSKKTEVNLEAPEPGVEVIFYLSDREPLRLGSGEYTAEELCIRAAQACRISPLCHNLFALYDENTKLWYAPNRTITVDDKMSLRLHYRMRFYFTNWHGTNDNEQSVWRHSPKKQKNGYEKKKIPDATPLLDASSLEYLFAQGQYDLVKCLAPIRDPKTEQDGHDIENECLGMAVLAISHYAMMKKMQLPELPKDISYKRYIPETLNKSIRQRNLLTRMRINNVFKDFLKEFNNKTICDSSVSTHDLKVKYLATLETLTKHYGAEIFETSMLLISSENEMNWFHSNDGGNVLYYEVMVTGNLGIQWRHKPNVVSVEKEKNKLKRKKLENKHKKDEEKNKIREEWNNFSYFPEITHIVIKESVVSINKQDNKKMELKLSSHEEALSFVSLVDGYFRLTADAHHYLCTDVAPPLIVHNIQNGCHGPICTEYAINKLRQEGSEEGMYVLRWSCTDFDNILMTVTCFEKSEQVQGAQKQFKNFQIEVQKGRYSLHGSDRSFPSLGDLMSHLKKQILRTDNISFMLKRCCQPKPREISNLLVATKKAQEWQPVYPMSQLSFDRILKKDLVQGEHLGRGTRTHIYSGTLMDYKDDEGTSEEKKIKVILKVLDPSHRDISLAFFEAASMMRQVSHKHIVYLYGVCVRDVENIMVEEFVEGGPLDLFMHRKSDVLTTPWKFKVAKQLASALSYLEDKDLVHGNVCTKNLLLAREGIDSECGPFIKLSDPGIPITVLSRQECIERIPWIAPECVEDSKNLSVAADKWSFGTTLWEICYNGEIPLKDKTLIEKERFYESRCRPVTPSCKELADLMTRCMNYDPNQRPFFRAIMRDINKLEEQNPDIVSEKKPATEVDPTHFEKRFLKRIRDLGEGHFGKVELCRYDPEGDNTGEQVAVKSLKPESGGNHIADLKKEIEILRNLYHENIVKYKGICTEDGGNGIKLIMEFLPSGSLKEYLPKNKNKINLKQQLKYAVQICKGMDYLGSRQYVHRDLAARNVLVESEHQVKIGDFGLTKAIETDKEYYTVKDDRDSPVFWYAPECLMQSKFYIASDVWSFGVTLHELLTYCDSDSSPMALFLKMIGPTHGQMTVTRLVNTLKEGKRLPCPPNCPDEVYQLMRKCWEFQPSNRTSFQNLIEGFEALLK

Compound | DNA-PK enz pIC50 [1] | IC50 [2] [nM] | JAK1 enz pIC50 [3] | JAK2 enz pIC50 [4] | AurB enz pIC50 [5] | IC50 [1] [nM] | IC50 [3] [nM] | IC50 [4] [nM] | IC50 [5] [nM]
Cc1cc2nnccc2cc1Nc1ncc2c(n1)n([C@H]1CCOC1)c(=O)n2C [Example 21, (S)-7-methyl-2-((7-methylcinnolin-6-yl)amino)-9-(tetrahydrofuran-3-yl)-7,9-dihydro-8H-purin-8-one] | >10 | 15.8 | <5 | <5 | <5 |  |  |  | 
Cc1cnc2cc(Nc3ncc4c(n3)n(C3CCOCC3)c(=O)n4C)c(C)cc2n1 [Example 33, 2-((2,7-dimethylquinoxalin-6-yl)amino)-7-methyl-9-(tetrahydro-2H-pyran-4-yl)-7,9-dihydro-8H-purin-8-one] |  | 126 |  |  |  | 0.501 | > 10000 | > 10000 | > 10000
CC(=O)N1CCC(n2c(=O)n(C)c3cnc(Nc4cc5cccnc5cc4C)nc32)CC1 [Example 51, 9-(1-acetylpiperidin-4-yl)-7-methyl-2-((7-methylquinolin-6-yl)amino)-7,9-dihydro-8H-purin-8-one] | >10 | 12.6 | <5 | <5 | <5 |  |  |  | 
Cc1cc2ncccc2cc1Nc1ncc2c(n1)n([C@H]1CC[C@@H](O)CC1)c(=O)n2C [Example 11, 9-((1s,4s)-4-hydroxycyclohexyl)-7-methyl-2-((7-methylquinolin-6-yl)amino)-7,9-dihydro-8H-purin-8-one] |  | 20 |  |  |  | 0.158 | > 10000 | > 10000 | > 10000
Cc1cc2ncccc2cc1Nc1ncc2c(n1)n([C@@H]1CCNC[C@@H]1F)c(=O)n2C [Example 38, 9-((3S,4R)-3-fluoropiperidin-4-yl)-7-methyl-2-((7-methylquinolin-6-yl)amino)-7,9-dihydro-8H-purin-8-one] | 8.0 | 3160 | <5 | <5 | <5 |  |  |  | 
CC(=O)N1CCC(n2c(=O)n(C)c3cnc(Nc4cc5nc(C)cnc5cc4C)nc32)CC1 [Example 5, 9-(1-acetylpiperidin-4-yl)-2-((3,7-dimethylquinoxalin-6-yl)amino)-7-methyl-7,9-dihydro-8H-purin-8-one] | 9.1 | 100 | <5 | <5 | <5 |  |  |  | 
Cc1cc2ncccc2cc1Nc1ncc2c(n1)n(C1CCN(C3COC3)CC1)c(=O)n2C [Example 47, 7-methyl-2-((7-methylquinolin-6-yl)amino)-9-(1-(oxetan-3-yl)piperidin-4-yl)-7,9-dihydro-8H-purin-8-one] | 9.0 | 200 | <5 | <5 | <5 |  |  |  | 
Cc1cc2nccnc2cc1Nc1ncc2c(n1)n([C@H]1CC[C@@H](O)CC1)c(=O)n2C [Example 13, 9-((1s,4s)-4-hydroxycyclohexyl)-7-methyl-2-((7-methylquinoxalin-6-yl)amino)-7,9-dihydro-8H-purin-8-one] |  | 15.8 |  |  |  | 0.2 | > 10000 | > 10000 | > 10000
COc1ccnc2cc(C)c(Nc3ncc4c(n3)n([C@H]3CC[C@H](O)CC3)c(=O)n4C)cc12 [Example 9, 9-((1r,4r)-4-hydroxycyclohexyl)-2-((4-methoxy-7-methylquinolin-6-yl)amino)-7-methyl-7,9-dihydro-8H-purin-8-one] | >10 | 7.94 | <5 | <5 | <5 |  |  |  | 
COCCN1CCC(n2c(=O)n(C)c3cnc(Nc4cc5cccnc5cc4C)nc32)CC1 [Example 49, 9-(1-(2-methoxyethyl)piperidin-4-yl)-7-methyl-2-((7-methylquinolin-6-yl)amino)-7,9-dihydro-8H-purin-8-one] | 8.8 | 251 | <5 | <5 | <5 |  |  |  | 
CCN1CCC(n2c(=O)n(C)c3cnc(Nc4cc5cccnc5cc4C)nc32)CC1 [Example 50, 9-(1-ethylpiperidin-4-yl)-7-methyl-2-((7-methylquinolin-6-yl)amino)-7,9-dihydro-8H-purin-8-one] | 8.4 | 398 | <5 | <5 | <5 |  |  |  | 
Cc1cc2nccnc2cc1Nc1ncc2c(n1)n([C@H]1CCOC1)c(=O)n2C [Example 22, (S)-7-methyl-2-((7-methylquinoxalin-6-yl)amino)-9-(tetrahydrofuran-3-yl)-7,9-dihydro-8H-purin-8-one] | 9.8 | 25.1 | <5 | <5 | <5 |  |  |  | 
Cc1cc2ncccc2cc1Nc1ncc2c(n1)n(C1COC1)c(=O)n2C [Example 36, 7-methyl-2-((7-methylquinolin-6-yl)amino)-9-(oxetan-3-yl)-7,9-dihydro-8H-purin-8-one] | 9.7 | 31.6 | <5 | <5.1 | <5 |  |  |  | 
